Source: ChEMBL document CHEMBL5365543, “Benzamidine Conjugation Converts Expelled Potential Active Agents into Antifungals against Drug-Resistant Fungi” (J Med Chem, 2023)
Converted amounts (≈) assume the structure as drawn. The source made the active and inactive calls. The rule behind the calls is not given here.

How the values were obtained:
[1] = Drug localization in mitochondria of Candida albicans SC5314 incubated for 30 mins by MitoTracker dye based confocal laser scanning microscopic analysis; assay type: ADME; conditions: 0.5 h
Candida albicans [2] = assay: microbe, parasite or virus in culture; assay type: functional; conditions: DSY654, time 24 hrs
Description: Antifungal activity against efflux pump-deficient Candida albicans DSY654 assessed as inhibition of fungal growth measured after 24 hrs by CLSI based microtiter plate analysis

Candida albicans [3] = assay: Drug accumulation in Candida albicans SC5314 measured per 10^8 cells incubated for 3 hrs by HPLC analysis; assay type: functional, organism-based
Candida albicans [4] = assay: Antifungal activity against wild-type Candida albicans SC5314 assessed as inhibition of fungal growth measured after 24 hrs by CLSI based microtiter plate analysis; assay type: functional
[5] = Drug accumulation in Candida albicans SC5314 by confocal laser scanning microscopic analysis; assay type: ADME
[6] = Drug accumulation in Candida albicans YEM15 expressing efflux pump CdrL and Cdr2 at 20 microg/ml incubated for 2 hrs by flow cytometery analysis; assay type: ADME; conditions: dose 20 µg/ml
[7] = Induction of hemolysis in mouse RBC cells at 2 to 32 microg/ml incubated for 60 mins by absorbance based analysis; assay type: toxicity, cell-based, Erythrocyte; conditions: red blood cells (erythrocytes), at 2 to 32 µg/mL, dose 2-32 µg/ml, read-out: Activity
Cell membrane = assay: Disruption of membrane integrity in Candida albicans SC5314 at 16 to 32 microg/ml incubated for 1 hr by Sytox green staining based fluorescence method; assay type: subcellular; conditions: dose 16-32 µg/ml
[8] = Drug accumulation in wild-type Candida albicans SC5314 at 20 microg/ml incubated for 2 hrs by flow cytometery analysis; assay type: ADME; conditions: dose 20 µg/ml
Candida albicans [9] = assay: Antifungal activity against Candida albicans assessed as inhibition of fungal growth measured after 24 hrs by CLSI based microtiter plate analysis; assay type: functional
[10] = Drug accumulation in Candida albicans YEM13 expressing efflux pump MdrL at 20 microg/ml incubated for 2 hrs by flow cytometery analysis; assay type: ADME; conditions: dose 20 µg/ml
[11] = Drug accumulation in Candida albicans TOM70-GFP-CAI4 at 20 microg/ml incubated for 30 mins by confocal laser scanning microscopic analysis; assay type: ADME; conditions: 0.5 h, dose 20 µg/ml
[12] = Cytotoxicity against mouse L929 cells assessed as inhibition of cell growth measured after 4 hrs by MTT assay; assay type: toxicity, cell-based
[13] = Cytotoxicity against human HBE cells assessed as inhibition of cell growth measured after 4 hrs by MTT assay; assay type: toxicity, cell-based
[Candida] auris [14] = Antifungal activity against clinical isolate fluconazole-resistant Candida auris CBS12774 assessed as inhibition of fungal growth measured after 24 hrs by CLSI based microtiter plate analysis; assay type: functional; conditions: Candidozyma auris
Candida albicans [15] = assay: Antifungal activity against clinical isolate fluconazole-resistant Candida albicans DSY296 harbouring TAC1 mutation overexpressing efflux pump CdrL and Cdr2 assessed as inhibition of fungal growth measured after 24 hrs by CLSI based microtiter plate analysis; assay type: functional
Candida albicans [16] = assay: Antifungal activity against clinical isolate fluconazole-resistant Candida albicans CA632 assessed as inhibition of fungal growth measured after 24 hrs by CLSI based microtiter plate analysis; assay type: functional
Candida albicans [17] = assay: Antifungal activity against clinical isolate Candida albicans YEM15 overexpressing efflux pump CdrL and Cdr2 assessed as inhibition of fungal growth measured after 24 hrs by CLSI based microtiter plate analysis; assay type: functional
Candida albicans [18] = assay: Antifungal activity against clinical isolate Candida albicans SCUPC2R14MPG2A harbouring UPC2 mutation overexpressing […] Erg11 assessed as inhibition of fungal growth measured after 24 hrs by CLSI based microtiter plate analysis; assay type: functional
Candida tropicalis = assay: Antifungal activity against clinical isolate fluconazole-resistant Candida tropicalis CT10 assessed as inhibition of fungal growth measured after 24 hrs by CLSI based microtiter plate analysis; assay type: functional
Candida albicans [19] = assay: Antifungal activity against clinical isolate fluconazole-resistant Candida albicans Gu5 harbouring TAC1 mutation overexpressing efflux pump CdrL and Cdr2 assessed as inhibition of fungal growth measured after 24 hrs by CLSI based microtiter plate analysis; assay type: functional
[Candida] auris [20] = Antifungal activity against clinical isolate fluconazole-resistant Candida auris CBS12776 assessed as inhibition of fungal growth measured after 24 hrs by CLSI based microtiter plate analysis; assay type: functional; conditions: Candidozyma auris
Candida albicans [21] = assay: Antifungal activity against clinical isolate Candida albicans SCMRRIR34MPG2A harbouring MRR1 mutation overexpressing efflux pump MdrL assessed as inhibition of fungal growth measured after 24 hrs by CLSI based microtiter plate analysis; assay type: functional
Candida albicans [22] = assay: Antifungal activity against clinical isolate fluconazole-resistant Candida albicans G5 harbouring MRR1 mutation overexpressing MdrL assessed as inhibition of fungal growth measured after 24 hrs by CLSI based microtiter plate analysis; assay type: functional
Candida albicans [23] = assay: Antifungal activity against clinical isolate Candida albicans YEM13 overexpressing efflux pump MdrL assessed as inhibition of fungal growth measured after 24 hrs by CLSI based microtiter plate analysis; assay type: functional
Nakaseomyces glabratus = assay: Antifungal activity against clinical isolate fluconazole-resistant Candida glabrata CG2 assessed as inhibition of fungal growth measured after 24 hrs by CLSI based microtiter plate analysis; assay type: functional
Cryptococcus neoformans = assay: Antifungal activity against clinical isolate fluconazole-resistant Cryptococcus neoformans H99 assessed as inhibition of fungal growth measured after 24 hrs by CLSI based microtiter plate analysis; assay type: functional
[24] = Drug accumulation in wild-type Candida albicans SC5314 at 50 microg/ml incubated for 3 hrs by HPLC analysis; assay type: ADME; conditions: dose 50 µg/ml
Candida albicans [25] = assay: Induction of drug resistance in wild-type Candida albicans SC5314 assessed as change in MIC at 0.5 times of MIC measured after 30 passages by broth microdilution method; assay type: functional
[26] = Candida albicans, SC5314, read-out: MIC80
[27] = Candida albicans, SC5314, 24 h, read-out: MIC80

Row | MIC80 (Candida albicans [2]) | MIC80 (Candida albicans [4]; [26]) | SMILES | hemolysis at 1 h [7] | MIC80 ([Candida] auris [14]) | MIC80 (Candida albicans [15]) | MIC80 (Candida albicans [16]) | MIC80 (Candida albicans [17]) | MIC80 (Candida albicans [18]) | MIC80 (Candida tropicalis) | MIC80 (Candida albicans [19]) | MIC80 ([Candida] auris [20]) | MIC80 (Candida albicans [21]) | MIC80 (Candida albicans [22]) | MIC80 (Candida albicans [4]; [27]) | MIC80 (Candida albicans [23]) | MIC80 (Nakaseomyces glabratus) | MIC80 (Cryptococcus neoformans) | Drug uptake [24] | also measured
1 |  |  | CCN(CC)c1ccc2cc(C(=O)OCCCCCCCCOc3ccc(C(=N)N)cc3)c(=O)oc2c1 |  |  |  |  |  |  |  |  |  |  |  |  |  |  |  |  | Drug uptake [1]: Active
2 | 32 µg/mL (≈ 105 µM) | > 256 µg/mL | C=C1C[C@@]23CC[C@@H]4[C@](C)(CN)CCC[C@@]4(C)[C@@H]2CC[C@]1(O)C3 |  |  |  |  |  |  |  |  |  |  |  |  |  |  |  |  | Drug uptake (Candida albicans [3]): inactive
3 |  |  | CCN(CC)c1ccc2c(-c3ccccc3C(=O)N3CCN(Cc4cn(CCCOc5ccc(C(=N)N)cc5)nn4)CC3)c3ccc(=[N+](CC)CC)cc-3oc2c1.[Cl-] | < 2% |  |  |  |  |  |  |  |  |  |  |  |  |  |  |  | Drug uptake [5]: Active; Drug uptake [6]: Active; Activity (Cell membrane): inactive; Drug uptake [8]: Active; MIC (Candida albicans [9]): > 128 µg/mL; Drug uptake [10]: Active; Drug uptake [11]: Active; Drug uptake [1]: Active
4 | 16 µg/mL | 16 µg/mL | C=C1C[C@@]23CC[C@H]4[C@@](C)(CCC[C@@]4(C)C(=O)OCCC[P+](c4ccccc4)(c4ccccc4)c4ccccc4)[C@@H]2CC[C@]1(O)C3.[I-] | 5.9% |  |  |  |  |  |  |  |  |  |  |  |  |  |  |  | IC50 at 4 h [12]: 6.94 µg/mL; IC50 at 4 h [13]: 3.59 µg/mL
5 |  |  | N=C(N)c1ccc(OCCCN2CCC(=C3c4ccc(Cl)cc4CCc4cccnc43)CC2)cc1 |  | 64 µg/mL (≈ 131 µM) | 64 µg/mL (≈ 131 µM) | 32 µg/mL (≈ 65.7 µM) | 32 µg/mL (≈ 65.7 µM) | 32 µg/mL (≈ 65.7 µM) | 32 µg/mL (≈ 65.7 µM) | 64 µg/mL (≈ 131 µM) | 64 µg/mL (≈ 131 µM) | 32 µg/mL (≈ 65.7 µM) | 32 µg/mL (≈ 65.7 µM) | 32 µg/mL (≈ 65.7 µM) | 32 µg/mL (≈ 65.7 µM) | 64 µg/mL (≈ 131 µM) | 16 µg/mL (≈ 32.9 µM) | Active | MIC (Candida albicans [4]): inactive
6 |  |  | CCN(CC)c1ccc2c(-c3ccccc3C(=O)O)c3ccc(=[N+](CC)CC)cc-3oc2c1.[Cl-] [RHODAMINE] |  |  |  |  |  |  |  |  |  |  |  |  |  |  |  |  | Drug uptake [5]: Not Active
7 |  |  | C=C1C[C@@]2(CC)[C@@H](CC[C@@]2(O)c2cn(CCCOc3ccc(C(=N)N)cc3)nn2)[C@@H]2CCC3=CCCC[C@@H]3[C@@H]12 |  | 64 µg/mL (≈ 121 µM) | 64 µg/mL (≈ 121 µM) | 32 µg/mL (≈ 60.4 µM) | 64 µg/mL (≈ 121 µM) | 64 µg/mL (≈ 121 µM) | 64 µg/mL (≈ 121 µM) | 64 µg/mL (≈ 121 µM) | 64 µg/mL (≈ 121 µM) | 64 µg/mL (≈ 121 µM) | 64 µg/mL (≈ 121 µM) | 32 µg/mL (≈ 60.4 µM) | 32 µg/mL (≈ 60.4 µM) | 64 µg/mL (≈ 121 µM) | 64 µg/mL (≈ 121 µM) | Active | MIC (Candida albicans [4]): inactive

Row | SMILES | MIC80 (Candida albicans [2]) | MIC80 (Candida albicans [4]; [26]) | hemolysis at 1 h [7] | MIC80 ([Candida] auris [14]) | MIC80 (Candida albicans [15]) | MIC80 (Candida albicans [16]) | MIC80 (Candida albicans [17]) | MIC80 (Candida albicans [18]) | MIC80 (Candida tropicalis) | MIC80 (Candida albicans [19]) | MIC80 ([Candida] auris [20]) | MIC80 (Candida albicans [21]) | MIC80 (Candida albicans [22]) | MIC80 (Candida albicans [4]; [27]) | MIC80 (Candida albicans [23]) | MIC80 (Nakaseomyces glabratus) | MIC80 (Cryptococcus neoformans) | Drug uptake [24] | also measured
8 | C=C1C[C@@]23CC[C@H]4[C@@](C)(CCC[C@@]4(C)C(=O)OCCCOc4ccc(C(=N)N)cc4)[C@@H]2CC[C@]1(O)C3 | 2 µg/mL (≈ 4.04 µM) |  | < 2% | 16 µg/mL (≈ 32.3 µM) | 8 µg/mL (≈ 16.2 µM) | 8 µg/mL (≈ 16.2 µM) | 8 µg/mL (≈ 16.2 µM) | 8 µg/mL (≈ 16.2 µM) | 8 µg/mL (≈ 16.2 µM) | 8 µg/mL (≈ 16.2 µM) | 16 µg/mL (≈ 32.3 µM) | 8 µg/mL (≈ 16.2 µM) | 8 µg/mL (≈ 16.2 µM) | 4 µg/mL (≈ 8.09 µM) | 8 µg/mL (≈ 16.2 µM) | 8 µg/mL (≈ 16.2 µM) | 16 µg/mL (≈ 32.3 µM) | Active | IC50 at 4 h [12]: 23.6 µg/mL (≈ 47.7 µM); IC50 at 4 h [13]: > 32 µg/mL; MIC80 (Candida albicans [4]; 24 h): 8 µg/mL (≈ 16.2 µM)
9 | N=C(N)c1ccc(OCCCOC(=O)c2ccccc2Nc2cccc(C(F)(F)F)c2)cc1 |  | 8 µg/mL (≈ 17.5 µM) |  |  |  |  |  |  |  |  |  |  |  |  |  |  |  | Active | Activity (Candida albicans [25]): Active
